Here are results for four compounds from EP3810127B1, “USE OF MILBEMYCIN OXIME AGAINST SEA LICE ON FISH” (Pharmaq AS, priority 2018, dated 2019).

Where two headings read alike, the source gives them in different places.

Experiment [1] has as its system sea lice. Conditions: cited from earlier work.
For experiment [2], the system named is sea lice. Conditions: injectable composition, cited from earlier work.
The subject of experiment [3] is copepodids from salmon lice with reduced sensitivity. Kind of experiment: in-vitro 1 hour exposure of copepodids in sea water. Conditions: exposed 1 hour, 96 hours post-exposure.
Experiment [4] concerns preadult salmon lice with reduced sensitivity. As to the kind of experiment: in-vitro 1 hour exposure of preadult lice in sea water.
Experiment [5] relates to adult reduced sensitivity lice. As to the kind of experiment: in-vitro 1 hour exposure of adult lice in sea water. On the set-up: species or system salmon lice. Conditions: exposed 1 hour, 48 hours post-exposure.
For experiment [6], the system named is adult stages of L. salmonis. As to the kind of experiment: in-vivo bath exposure of Atlantic salmon infested with adult lice. Conditions: one hour bath, female lice counted on Day 3. The method, then: In a separate in-vivo study, Atlantic salmon infested with adult stages of L. salmonis were housed in a 500L tank with sea water at 12°C before drug exposure. Fish were randomly extracted from the holding tank and distributed to the treatment containers (n=14/container). […] Fish were then transferred to observation tanks. Fish were dosed with 500ppb, 250ppb, 125ppb, and 62.5ppb milbemycin oxime. […] On Day 3, fish were terminated and the number of female salmon lice were counted on each of the fish. Milbemycin oxime was 100% efficacious against the sea lice at all dose levels.

In a further experiment the test system is salmon lice. Conditions: one hour bath on Day 1, lice counted on Day 3.

Regarding “23(S)-t-butyloxyimino-25(S)-t-butyl milbemycin X [VS55759]”, in the experiment with sea lice [1] (0.1ppm (100ppb) in a bath solution), the “efficacious against sea lice” value was “efficacious”. Moreover, the “effective against sea lice” value in the experiment with sea lice [1] (100ppb dose, immersion) was 100%.

Take `O=C(NC(=O)c1c(F)cccc1F)Nc1cc(Cl)c(OC(F)(F)C(F)F)c(Cl)c1` [hexaflumuron]: the “efficacy against sea lice” value with sea lice [2] (50mg/kg) is “provided efficacy”.

On to `O=C(NC(=O)c1c(F)cccc1F)Nc1cc(Cl)c(OC(F)(F)C(F)C(F)(F)F)cc1Cl` (stereo not drawn) [lufenuron], for which the “efficacy against sea lice” value in the experiment on sea lice [2] (50mg/kg) is listed as “provided efficacy”.

As for milbemycin oxime, the state of copepodids entry in experiment [3] (12.5ppb), in experiment [3] (25ppb) and in experiment [3] (50ppb) was “moribund” throughout. Besides, the “state of preadult lice” value in experiment [4] (5ppb, exposed 1 hour, 48 hours post-exposure) is listed as “all were moribund”. Further, the “more effective at killing sea lice than VS55759” value in experiment [4] (milbemycin oxime at 5ppb compared with VS55759 at 50ppb (60% morbidity)) is “at least 10 x”. Besides, the moribund rate in experiment [5] (2ppb) is on record as 82%. Further, the “state of adult lice” value in experiment [5] (10ppb) and in experiment [5] (25ppb) was “all dead or moribund” throughout. Further, the “efficacious against the sea lice” value in experiment [6] (62.5ppb), in experiment [6] (125ppb), in experiment [6] (250ppb) and in experiment [6] (500ppb) was 100% in each case. Further, the “efficacious against adult sea lice” value in the experiment on salmon lice (7.8ppb), in the experiment with salmon lice (31.3ppb) and in the experiment on salmon lice (62.5ppb) was 100% throughout. The Efficacy in the experiment on salmon lice (15.6ppb, remaining living lice loosely attached to the caudal fin) is given as 66.6%. The “efficacy against sea lice” value with sea lice [2] (dose of 0.5mg/kg) is “not efficacious”.
